± gives the expanded uncertainty stated by the source.
Conditions: Liquid

Cc1ccc(C)c(C)c1 [1,2,4-trimethylbenzene]
viscosity [mPa·s]
Conditions | 293.15 K | 313.15 K | 333.15 K | 353.15 K
100 kPa, Vibrating wire viscometry | 0.8929 ± 0.015 | 0.6989 ± 0.012 | 0.5596 ± 0.01 | 0.4527 ± 0.0085
1000 kPa, Vibrating wire viscometry | 0.9065 ± 0.015 | 0.7096 ± 0.012 | 0.5646 ± 0.01 | 0.4566 ± 0.0086
5000 kPa, Falling or rolling sphere viscometry | 0.913 ± 0.045 | 0.7254 ± 0.036 | 0.5819 ± 0.029 | 0.4715 ± 0.023
5000 kPa, Vibrating wire viscometry | 0.9417 ± 0.016 | 0.7359 ± 0.013 | 0.5885 ± 0.01 | 0.4711 ± 0.0088
10000 kPa, Falling or rolling sphere viscometry | 0.9568 ± 0.047 | 0.7531 ± 0.037 | 0.6058 ± 0.03 | 0.492 ± 0.024
10000 kPa, Vibrating wire viscometry | 0.9769 ± 0.016 | 0.7606 ± 0.013 | 0.6066 ± 0.011 | 0.4886 ± 0.0091
20000 kPa, Falling or rolling sphere viscometry | 1.042 ± 0.052 | 0.8131 ± 0.04 | 0.6529 ± 0.032 | 0.532 ± 0.026
20000 kPa, Vibrating wire viscometry | 1.061 ± 0.018 | 0.8203 ± 0.014 | 0.6476 ± 0.011 | 0.5283 ± 0.0096
30000 kPa, Falling or rolling sphere viscometry | 1.137 ± 0.056 | 0.8704 ± 0.043 | 0.7014 ± 0.035 | 0.571 ± 0.028
30000 kPa, Vibrating wire viscometry | 1.148 ± 0.019 | 0.8894 ± 0.015 | 0.6942 ± 0.012 | 0.5626 ± 0.01
40000 kPa, Falling or rolling sphere viscometry | 1.224 ± 0.061 | 0.9344 ± 0.046 | 0.7504 ± 0.037 | 0.6125 ± 0.03
40000 kPa, Vibrating wire viscometry | 1.233 ± 0.02 | 0.9528 ± 0.016 | 0.7426 ± 0.013 | 0.5993 ± 0.011
50000 kPa, Vibrating wire viscometry | 1.336 ± 0.022 | 1.026 ± 0.017 | 0.7922 ± 0.013 | 0.6375 ± 0.011
60000 kPa, Falling or rolling sphere viscometry | – | 1.07 ± 0.053 | 0.8467 ± 0.042 | 0.6967 ± 0.034
60000 kPa, Vibrating wire viscometry | 1.435 ± 0.023 | 1.1 ± 0.018 | 0.8456 ± 0.014 | 0.6768 ± 0.012
70000 kPa, Vibrating wire viscometry | 1.566 ± 0.025 | 1.171 ± 0.019 | 0.9004 ± 0.015 | 0.7177 ± 0.012
80000 kPa, Falling or rolling sphere viscometry | – | 1.25 ± 0.062 | 0.9594 ± 0.048 | 0.7819 ± 0.039
80000 kPa, Vibrating wire viscometry | 1.693 ± 0.027 | 1.249 ± 0.02 | 0.9675 ± 0.016 | 0.7606 ± 0.013
100000 kPa, Falling or rolling sphere viscometry | – | – | 1.086 ± 0.054 | 0.8778 ± 0.043
100000 kPa, Vibrating wire viscometry | 1.952 ± 0.031 | 1.415 ± 0.023 | 1.094 ± 0.018 | 0.8518 ± 0.014
120000 kPa, Falling or rolling sphere viscometry | – | – | 1.228 ± 0.061 | 0.9727 ± 0.048
120000 kPa, Vibrating wire viscometry | 2.288 ± 0.036 | 1.599 ± 0.026 | 1.221 ± 0.02 | 0.9515 ± 0.016
140000 kPa, Vibrating wire viscometry | 2.668 ± 0.042 | 1.824 ± 0.029 | 1.343 ± 0.022 | 1.065 ± 0.018

CC(C)CC(C)(C)C [2,2,4-trimethylpentane]
viscosity [mPa·s]
Conditions | 293.15 K | 298.15 K | 313.15 K | 323.15 K | 333.15 K | 348.15 K | 353.15 K
100 kPa, Vibrating wire viscometry | 0.5064 ± 0.0094 | 0.4746 ± 0.0089 | 0.4035 ± 0.0079 | 0.3645 ± 0.0073 | 0.3265 ± 0.0068 | 0.2829 ± 0.0063 | 0.2738 ± 0.0061
1000 kPa, Vibrating wire viscometry | 0.51 ± 0.0094 | 0.4819 ± 0.009 | 0.4114 ± 0.008 | 0.3694 ± 0.0074 | 0.3296 ± 0.0069 | 0.2863 ± 0.0063 | 0.2748 ± 0.0061
5000 kPa, Falling or rolling sphere viscometry | 0.5412 ± 0.027 | – | 0.4251 ± 0.021 | – | 0.3468 ± 0.017 | – | –
5000 kPa, Vibrating wire viscometry | 0.5399 ± 0.0099 | 0.509 ± 0.0094 | 0.4353 ± 0.0083 | 0.3915 ± 0.0077 | 0.3515 ± 0.0072 | 0.306 ± 0.0066 | 0.2923 ± 0.0064
10000 kPa, Falling or rolling sphere viscometry | 0.5744 ± 0.029 | – | 0.4517 ± 0.022 | – | 0.37 ± 0.018 | – | –
10000 kPa, Vibrating wire viscometry | 0.5733 ± 0.01 | 0.5388 ± 0.0098 | 0.4633 ± 0.0087 | 0.4157 ± 0.0081 | 0.3754 ± 0.0075 | 0.3274 ± 0.0068 | 0.3175 ± 0.0067
20000 kPa, Falling or rolling sphere viscometry | 0.6401 ± 0.032 | – | 0.5129 ± 0.025 | – | 0.4153 ± 0.021 | – | –
20000 kPa, Vibrating wire viscometry | 0.6366 ± 0.011 | 0.6027 ± 0.011 | 0.5177 ± 0.0095 | 0.464 ± 0.0088 | 0.4216 ± 0.0081 | 0.3692 ± 0.0074 | 0.357 ± 0.0072
30000 kPa, Falling or rolling sphere viscometry | 0.7047 ± 0.035 | – | 0.5662 ± 0.028 | – | 0.459 ± 0.023 | – | –
30000 kPa, Vibrating wire viscometry | 0.7059 ± 0.012 | 0.6672 ± 0.012 | 0.5775 ± 0.01 | 0.5146 ± 0.0095 | 0.4705 ± 0.0088 | 0.4131 ± 0.008 | 0.3966 ± 0.0078
40000 kPa, Falling or rolling sphere viscometry | 0.7738 ± 0.038 | – | 0.6128 ± 0.03 | – | 0.5083 ± 0.025 | – | –
40000 kPa, Vibrating wire viscometry | 0.7817 ± 0.013 | 0.7394 ± 0.013 | 0.6351 ± 0.011 | 0.5714 ± 0.01 | 0.5232 ± 0.0096 | 0.4565 ± 0.0086 | 0.4379 ± 0.0084
50000 kPa, Vibrating wire viscometry | 0.8608 ± 0.015 | 0.8154 ± 0.014 | 0.6902 ± 0.012 | 0.6255 ± 0.011 | 0.579 ± 0.01 | 0.5022 ± 0.0093 | 0.4853 ± 0.0091
60000 kPa, Falling or rolling sphere viscometry | 0.9262 ± 0.046 | – | 0.7307 ± 0.036 | – | 0.6083 ± 0.03 | – | –
60000 kPa, Vibrating wire viscometry | 0.9567 ± 0.016 | 0.8956 ± 0.015 | 0.7509 ± 0.013 | 0.6832 ± 0.012 | 0.6246 ± 0.011 | 0.5476 ± 0.01 | 0.5294 ± 0.0097
70000 kPa, Vibrating wire viscometry | 1.042 ± 0.017 | 0.9815 ± 0.017 | 0.8173 ± 0.014 | 0.742 ± 0.013 | 0.6779 ± 0.012 | 0.6049 ± 0.011 | 0.5738 ± 0.01
80000 kPa, Falling or rolling sphere viscometry | 1.115 ± 0.055 | – | 0.8553 ± 0.042 | – | 0.6981 ± 0.035 | – | –
80000 kPa, Vibrating wire viscometry | 1.127 ± 0.019 | 1.07 ± 0.018 | 0.8861 ± 0.015 | 0.7969 ± 0.014 | 0.728 ± 0.013 | 0.6507 ± 0.011 | 0.6288 ± 0.011
100000 kPa, Falling or rolling sphere viscometry | 1.298 ± 0.064 | – | 1.024 ± 0.051 | – | 0.8101 ± 0.04 | – | –
100000 kPa, Vibrating wire viscometry | 1.316 ± 0.022 | 1.234 ± 0.02 | 1.045 ± 0.017 | 0.9249 ± 0.016 | 0.8361 ± 0.014 | 0.7538 ± 0.013 | 0.7176 ± 0.013
120000 kPa, Falling or rolling sphere viscometry | – | – | 1.185 ± 0.059 | – | 0.9406 ± 0.047 | – | –
120000 kPa, Vibrating wire viscometry | 1.518 ± 0.025 | 1.435 ± 0.024 | 1.195 ± 0.02 | 1.068 ± 0.018 | 0.9606 ± 0.016 | 0.864 ± 0.015 | 0.8245 ± 0.014
140000 kPa, Vibrating wire viscometry | 1.739 ± 0.028 | 1.648 ± 0.027 | 1.363 ± 0.022 | 1.21 ± 0.02 | 1.095 ± 0.018 | 0.977 ± 0.016 | 0.9332 ± 0.016
